The results in this text go back to ChEMBL document CHEMBL4196027, “Structure-based discovery of cytotoxic dimeric tetrahydroxanthones as potential topoisomerase I inhibitors from a marine-derived fungus” (Eur J Med Chem, 2018).

The source made the active and inactive calls. The rule behind the calls is not given here.

Broadly, the IC50 is the concentration that inhibits the measured activity by half. The term inhibition denotes the percentage by which the read-out fell short of the control.

Test [1] deals with HL-60. The experiment in a line: Cytotoxicity against human HL60 cells assessed as reduction in cell proliferation after 48 hrs by MTT assay. Type of test: functional, cell-based. In general terms: Tetrazolium assays rely on reduction of a dye to a coloured formazan, in cell work by metabolically active cells.
The test system of test [2] is K562. The experiment in a line: Cytotoxicity against human K562 cells assessed as reduction in cell proliferation after 48 hrs by MTT assay. Type of test: functional, cell-based.
Test [3] relates to A549. The experiment in a line: Cytotoxicity against human A549 cells assessed as reduction in cell proliferation after 48 hrs by MTT assay. Type of test: functional, cell-based.
Test [4] concerns NCI-H1975. Nature of the test: Cytotoxicity against human NCI-H1975 cells assessed as reduction in cell proliferation after 48 hrs by MTT assay. Type of test: functional, cell-based.
Test [5] deals with MGC-803. The experiment in a line: Cytotoxicity against human MGC803 cells assessed as reduction in cell proliferation after 48 hrs by MTT assay. Type of test: functional, cell-based.
Test [6] in a line: Cytotoxicity against human HO8910 cells assessed as reduction in cell proliferation after 48 hrs by MTT assay. Type of test: functional, cell-based.
The test system of test [7] is HCT-116. The experiment in a line: Cytotoxicity against human HCT116 cells assessed as reduction in cell proliferation after 48 hrs by MTT assay. Type of test: functional, cell-based.
Test [8] deals with HEK293. The experiment in a line: Cytotoxicity against HEK293 cells assessed as reduction in cell proliferation after 48 hrs by MTT assay. Type of test: cell-based. The conditions noted are these: Homo sapiens, HEK293, 48 h.
Test [9] deals with T1, DNA topoisomerase 1 (Homo sapiens) (UniProt P11387).
T1 sequence (whole entry): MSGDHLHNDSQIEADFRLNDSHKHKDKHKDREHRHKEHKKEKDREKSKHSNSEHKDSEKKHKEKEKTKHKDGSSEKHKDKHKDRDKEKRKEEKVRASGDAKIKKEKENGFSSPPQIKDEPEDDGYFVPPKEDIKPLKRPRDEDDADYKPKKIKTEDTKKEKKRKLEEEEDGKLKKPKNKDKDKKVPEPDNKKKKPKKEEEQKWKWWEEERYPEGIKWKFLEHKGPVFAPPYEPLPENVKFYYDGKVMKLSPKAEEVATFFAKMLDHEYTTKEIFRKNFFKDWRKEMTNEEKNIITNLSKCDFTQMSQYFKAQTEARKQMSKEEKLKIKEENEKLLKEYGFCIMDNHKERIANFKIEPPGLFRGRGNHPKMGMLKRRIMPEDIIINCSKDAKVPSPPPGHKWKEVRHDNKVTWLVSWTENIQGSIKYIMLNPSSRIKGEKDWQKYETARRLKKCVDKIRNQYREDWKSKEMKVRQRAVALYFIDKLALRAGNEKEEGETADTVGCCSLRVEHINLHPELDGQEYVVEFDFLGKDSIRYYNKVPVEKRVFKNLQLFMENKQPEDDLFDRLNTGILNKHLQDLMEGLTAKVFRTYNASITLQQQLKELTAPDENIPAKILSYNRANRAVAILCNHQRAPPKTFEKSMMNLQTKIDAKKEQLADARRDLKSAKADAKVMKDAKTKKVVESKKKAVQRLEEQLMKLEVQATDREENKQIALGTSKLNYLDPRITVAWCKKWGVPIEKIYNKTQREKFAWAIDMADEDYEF
Nature of the test: Inhibition of DNA topoisomerase-1 (unknown origin) up to 40 uM using supercoiled pBR322 DNA as substrate preincubated with enzyme followed by substrate addition measured after 30 mins by ethidium bromide staining based agarose gel electrophoresis method.

For test [10], the species on record is Homo sapiens. The experiment in a line: Inhibition of DNA topoisomerase-2 (unknown origin) at 100 uM using kinetoplast DNA as substrate measured after 30 mins by ethidium bromide staining based agarose gel electrophoresis method.
Test [11] deals with T2, Topoisomerase I (Bos taurus) (UniProt Q2HPH0).
T2 sequence (whole entry): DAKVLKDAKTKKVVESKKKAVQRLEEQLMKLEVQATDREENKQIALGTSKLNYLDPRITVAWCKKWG
The experiment in a line: Inhibition of calf thymus DNA topoisomerase-1-mediated supercoiled pBR322 DNA relaxation assessed as stabilization of enzyme-DNA complex at 100 uM preincubated with enzyme followed by substrate addition measured after 30 mins by ethidium bromide staining based agarose gel electrophoresis method.

The target of test [12] is T2, Topoisomerase I (Bos taurus). Conditions: 40 uM.
Description: Inhibition of calf thymus DNA topoisomerase-1-mediated supercoiled pBR322 DNA relaxation assessed as stabilization of enzyme-DNA complex at 40 uM preincubated with enzyme followed by substrate addition measured after 30 mins by ethidium bromide staining based agarose gel electrophoresis method
In test [13] the test system is DNA. Nature of the test: Inhibition of ethidium bromide binding to Escherichia coli pBR322 DNA at 100 uM after 30 mins by fluorescence assay. Type of test: nucleic-acid assay.
For test [14], the target named is T1, DNA topoisomerase 1 (Homo sapiens). The experiment in a line: Inhibition of DNA topoisomerase-1 (unknown origin) using supercoiled pBR322 DNA as substrate preincubated with enzyme followed by substrate addition measured after 30 mins by ethidium bromide staining based agarose gel electrophoresis method.
The test system of test [15] is DNA. The experiment in a line: Binding affinity to Escherichia coli pBR322 DNA assessed as red shift by UV-Visible spectrum analysis. Type of test: nucleic-acid assay.
Test [16] relates to DNA. The experiment in a line: Binding affinity to Escherichia coli pBR322 DNA assessed as hypochromicity by UV-Visible spectrum analysis. Type of test: nucleic-acid assay.
Test [17] deals with T1, DNA topoisomerase 1 (Homo sapiens). Nature of the test: Inhibition of DNA topoisomerase-1 (unknown origin) at 10 uM using supercoiled pBR322 DNA as substrate preincubated for 1 to 30 mins followed by substrate addition by ethidium bromide staining based agarose gel electrophoresis method. The conditions noted are these: TDE = time-dependent effect.
Test [18] has the same target. The experiment in a line: Inhibition of DNA topoisomerase-1 (unknown origin) at 10 uM using supercoiled pBR322 DNA as substrate preincubated for 15 mins followed by substrate addition measured after 30 mins by ethidium bromide staining based agarose gel electrophoresis method.
Test [19] deals with MGC-803. Nature of the test: Cell cycle arrest in human MGC803 cells assessed as accumulation at G2/M phase after 24 hrs by propidium iodide staining based flow cytometry. Type of test: functional. (Flow cytometry measures light scatter and fluorescence of single cells or particles in a stream.)
For test [20], the system named is MGC-803. Nature of the test: Induction of necrosis in human MGC803 cells after 24 hrs by Annexin V-FITC/propidium iodide staining based flow cytometry. Type of test: functional, cell-based.
In test [21] the test system is MGC-803. Nature of the test: Induction of apoptosis in human MGC803 cells assessed as change in PARP protein expression up to 25 uM after 24 hrs by Western blot analysis. Type of test: functional, cell-based. (In general: A western blot detects proteins with antibodies after separation by electrophoresis.)
Test [22] has as its system MGC-803. Nature of the test: Induction of apoptosis in human MGC803 cells assessed as change in procaspase-9 protein expression up to 25 uM after 24 hrs by Western blot analysis. Type of test: functional, cell-based.
The subject of test [23] is MGC-803. Nature of the test: Induction of apoptosis in human MGC803 cells up to 25 uM after 48 hrs by Hoechst 33342/propidium iodide staining based flow cytometry. Type of test: functional, cell-based.
Test [24] concerns MGC-803. Nature of the test: Induction of cell membrane permeability in human MGC803 cells up to 50 uM up to 72 hrs by LDH release assay. Type of test: functional, cell-based.

Turning to `COC(=O)[C@@]12Oc3c(-c4ccc(O)c5c4O[C@]4(C(=O)OC)C(=C(O)C[C@H](C)[C@H]4O)C5=O)ccc(O)c3C(=O)C1=C(O)C[C@H](C)[C@H]2O`, the IC50 in test [1] (Homo sapiens, HL-60, 48 h) turned out to be 0.9 µM; in test [2] (Homo sapiens, K562, 48 h), 0.4 µM; in [3] (Homo sapiens, A549, 48 h), 11.7 µM; in [4] (Homo sapiens, NCI-H1975, 48 h), 3.5 µM; in test [5] (Homo sapiens, MGC-803, 48 h) it was 0.9 µM; in test [6] (Homo sapiens, HO-8910, 48 h) it was 1.4 µM. In addition, the IC50 in test [7] (Homo sapiens, HCT-116, 48 h) worked out at 0.5 µM.

Turning to `COC(=O)[C@@]12Oc3ccc(-c4ccc(O)c5c4O[C@]4(C(=O)OC)C(=C(O)C[C@H](C)[C@H]4O)C5=O)c(O)c3C(=O)C1=C(O)C[C@H](C)[C@H]2O`, the IC50 was 0.5 µM in [1] (Homo sapiens, HL-60, 48 h); 1.1 µM in test [2] (Homo sapiens, K562, 48 h); 1.6 µM in test [3] (Homo sapiens, A549, 48 h); 1.1 µM in test [5] (Homo sapiens, MGC-803, 48 h); 1.5 µM in test [6] (Homo sapiens, HO-8910, 48 h); 1.2 µM in [7] (Homo sapiens, HCT-116, 48 h).

For the molecule `COC(=O)c1c(O)c(C)cc(O)c1C(=O)c1c(O)ccc(-c2ccc3c(c2O)C(=O)C2=C(O)C[C@H](C)[C@@H](O)[C@]2(C(=O)OC)O3)c1O`, the IC50 in test [1] (Homo sapiens, HL-60, 48 h) is 27.8 µM; in test [2] (Homo sapiens, K562, 48 h), over 50 µM; in test [3] (Homo sapiens, A549, 48 h), over 50 µM; in test [4] (Homo sapiens, NCI-H1975, 48 h), over 50 µM; in [8] it was over 50 µM; in test [6] (Homo sapiens, HO-8910, 48 h), over 50 µM. The IC50 in [7] (Homo sapiens, HCT-116, 48 h) is over 50 µM.

On to `COC(=O)[C@@]12Oc3ccc(-c4ccc(O)c5c4O[C@]4(C(=O)OC)C(=C(O)C[C@H](C)[C@H]4O)C5=O)c(O)c3C(=O)C1=C(O)C[C@H](CO)[C@H]2O`, for which the IC50 in test [1] (Homo sapiens, HL-60, 48 h) was 47.3 µM; in test [2] (Homo sapiens, K562, 48 h), over 50 µM; in [3] (Homo sapiens, A549, 48 h), over 50 µM; in test [4] (Homo sapiens, NCI-H1975, 48 h), over 50 µM; in test [8], over 50 µM; in [6] (Homo sapiens, HO-8910, 48 h), over 50 µM. Moreover, in test [7] (Homo sapiens, HCT-116, 48 h), the IC50 is over 50 µM.

In the case of `COC(=O)[C@@]12Oc3c(-c4ccc5c(c4O)C(=O)C4=C(O)C[C@H](C)[C@@H](O)[C@]4(C(=O)OC)O5)ccc(O)c3C(=O)C1=C(O)C[C@H](CO)[C@H]2O`, the IC50 in test [1] (Homo sapiens, HL-60, 48 h) was 49.5 µM; in test [2] (Homo sapiens, K562, 48 h), over 50 µM; in test [3] (Homo sapiens, A549, 48 h) it was over 50 µM; in [4] (Homo sapiens, NCI-H1975, 48 h), 49.5 µM; in test [5] (Homo sapiens, MGC-803, 48 h) it was over 50 µM; in [8] it was over 50 µM. Besides, the IC50 is over 50 µM in [6] (Homo sapiens, HO-8910, 48 h) and over 50 µM in test [7] (Homo sapiens, HCT-116, 48 h). Moreover, the inhibition result in [9] and in [11] was “Active” throughout. Further, the inhibition entry in test [10] was “inactive”.

For `CC[C@@]1(O)C(=O)OCc2c1cc1n(c2=O)Cc2cc3cc(O)ccc3nc2-1`, the inhibition entry in test [12] was “Active”.

Consider `COc1cc(NS(C)(=O)=O)ccc1Nc1c2ccccc2nc2ccccc12`, for which the inhibition result in test [13] is “Active”.

Regarding `COC(=O)[C@@]12Oc3cc(C)c(-c4ccc5c(c4O)C(=O)C4=C(O)C[C@H](C)[C@@H](O)[C@]4(C(=O)OC)O5)c(O)c3C(=O)C1=C(O)CC[C@H]2O` (stereo in doubt; 1), the inhibition result in test [14] was “Dose-dependent effect”; in test [17] it was “Tde”; in test [18], 100%. Also, the inhibition result in [10] and in test [13] was “inactive” each time. Moreover, in [11], the inhibition result was “Active”. The result in test [15], in test [16], in [21], in test [22] and in test [23] was inactive. The Activity entry in test [19] and in test [20] was “Dose-dependent effect” in each case. The result in test [24] was Active.

Regarding `COC(=O)[C@@]12Oc3cc(C)c(-c4ccc5c(c4O)C(=O)C4=C(O)C[C@H](C)[C@@H](O)[C@]4(C(=O)OC)O5)c(O)c3C(=O)C1=C(O)CC[C@H]2O` (stereo in doubt; 2) [listing 1 of 2 here], the IC50 in [1] (hl-60) was 6.9 µM; in [2] (k562), 22.1 µM; in test [3] (a549), 19.2 µM; in [4] (nci-h1975) it was 5.3 µM; in test [5] (mgc-803), 6.2 µM; in [6], 6.9 µM. Further, in test [7] (hct-116), the IC50 came out at 15.2 µM.

Turning to `COC(=O)[C@@]12Oc3cc(C)c(-c4ccc5c(c4O)C(=O)C4=C(O)C[C@H](C)[C@@H](O)[C@]4(C(=O)OC)O5)c(O)c3C(=O)C1=C(O)CC[C@H]2O` (stereo in doubt; 2) [listing 2 of 2 here], the inhibition entry in test [9] and in [11] was “Active” in each case. The inhibition result in test [10] is “inactive”.
